# How the values were obtained:
# [1] = system: NEDD4-1; set-up: method as in PMID 27979631; settings: cited from earlier work
# [2] = molecular target: T1, WWP2 (Homo sapiens, UniProt O00308); assay: STD NMR binding, WWP2; settings: 500 μM ligand, 20 μM protein
# T1 construct: made in house; host or cells: E. coli
# Procedure: Given the similarities between WWP1 and WWP2 HECT domains, we speculated that the relatively low sensitivity of DSF may not be able to detect weak WWP2-I3C interactions and therefore opted to investigate further using STD NMR. STD NMR is a versatile ligand-based NMR approach, relying on selective saturation of the protein. This saturation is transferred to the ligand when and if the ligand binds, causing a reduction of the signal intensities. The STD intensities are calculated as the difference of the reference spectra (where selective saturation is off) minus the irradiated spectra, and they are proportional to the vicinity of the protein surface. […]
# An Amicon centrifuge filter unit with a 10 kDa MW cutoff was used to exchange the protein in 25 mM d19-2,2-bis(hydroxymethyl)-2,2′,2″-nitrilotriethanol, 100 mM NaCl and 1.0 mM DTT buffer pH* 8.9 (uncorrected for the deuterium isotope effect on the pH glass electrode) in D2O. […] All the NMR experiments were performed on a Bruker Avance 800.23 MHz at 278 K. Binding epitope mappings were obtained by determining the initial slopes (STD0) calculated by performing a least-squares fitting of the following monoexponential curve: [drawing 1] where STD(tsat) is the STD intensity for a saturation time, tsat, STDmax is the maximum STD intensity and ksat is the rate constant for saturation transfer. […]
# T1 sequence (O00308 whole entry): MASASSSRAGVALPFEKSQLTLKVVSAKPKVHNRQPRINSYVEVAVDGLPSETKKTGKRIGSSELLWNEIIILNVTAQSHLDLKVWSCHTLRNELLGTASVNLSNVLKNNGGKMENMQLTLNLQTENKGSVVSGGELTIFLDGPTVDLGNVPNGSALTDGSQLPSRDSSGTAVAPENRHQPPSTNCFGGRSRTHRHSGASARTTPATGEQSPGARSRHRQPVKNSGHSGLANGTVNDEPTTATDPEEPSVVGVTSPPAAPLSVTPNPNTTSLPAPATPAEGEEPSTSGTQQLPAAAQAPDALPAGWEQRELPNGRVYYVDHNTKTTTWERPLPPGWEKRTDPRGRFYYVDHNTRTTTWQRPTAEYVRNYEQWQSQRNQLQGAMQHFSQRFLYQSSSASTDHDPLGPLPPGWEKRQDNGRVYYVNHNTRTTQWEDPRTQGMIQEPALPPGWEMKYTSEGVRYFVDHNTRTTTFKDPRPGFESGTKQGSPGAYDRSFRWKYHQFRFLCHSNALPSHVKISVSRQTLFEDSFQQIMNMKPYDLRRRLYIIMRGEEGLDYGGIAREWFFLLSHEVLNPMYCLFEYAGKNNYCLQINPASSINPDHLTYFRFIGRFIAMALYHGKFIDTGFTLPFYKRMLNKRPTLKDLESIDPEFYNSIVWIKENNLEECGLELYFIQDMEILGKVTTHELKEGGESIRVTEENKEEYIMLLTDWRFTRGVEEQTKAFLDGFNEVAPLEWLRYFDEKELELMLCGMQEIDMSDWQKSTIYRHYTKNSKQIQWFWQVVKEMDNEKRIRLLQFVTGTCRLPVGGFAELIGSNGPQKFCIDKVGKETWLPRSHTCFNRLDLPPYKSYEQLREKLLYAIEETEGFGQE
smiles,measurement,setting,value
"OCc1c[nH]c2ccccc12 [Compound I3C, Indole-3-carbinol, reference compound]",IC50,[1],284 µM
same,"STD intensities, WWP2-I3C complex (in words, compared with WWP1)",[2],much lower

# Reference: PMC11840788, “3,3′-Diindolylmethane (DIM): A Molecular Scaffold for Inhibition of WWP1 and WWP2, Members of the NEDD4 Family HECT E3 Ligases” (ACS Omega, 2025)
